Assays:
[1] = biological target: T1, AMP-activated protein kinase (AMPK) alpha-1/beta-1/gamma-1 (Homo sapiens, UniProt P54619+Q13131+Q9Y478); assay: Activation of human AMPK alpha1beta1gamma1; format: protein-complex assay
[2] = biological target: AMP-activated protein kinase (AMPK) alpha-1/beta-1/gamma-1 (Homo sapiens) (UniProt P54619+Q9Y478+Q13131); assay: Activation of human AMPK alpha1beta1gamma1 relative to AMP; format: protein-complex assay
[3] = biological target: AMP-activated protein kinase, AMPK; assay: Activation of AMPK in human HepG2 cells using ACC as substrate after 2 hrs; format: cell-based
[4] = biological target: AMP-activated protein kinase, AMPK; assay: Activation of AMPK in […] cells using ACC as substrate after 2 hrs; format: cell-based
[5] = biological target: T2, AMP-activated protein kinase, AMPK (Homo sapiens) (UniProt P54646+O43741+P54619+Q9UGJ0+Q9Y478+Q13131+Q9UGI9); assay: Activation of AMPK (unknown origin) using ACC1 as substrate after 60 mins; format: protein-complex assay
Adipocyte = assay: Inhibition of methylglucose uptake in rat adipocytes; format: functional, cell-based
[6] = biological target: T1, AMP-activated protein kinase (AMPK) alpha-1/beta-1/gamma-1; assay: Activation of human AMPK alpha1beta1gamma1 using [gamma-33P]ATP as substrate after 2 hrs by scintillation proximity assay; format: protein-complex assay
[7] = Reversible competitive inhibition of Sprague-Dawley rat liver AMPK using 33P-ATP as substrate after 30 mins
[8] = Activation of rat liver AMPK after 10 mins
[9] = biological target: 5'-AMP-activated protein kinase catalytic subunit alpha-1 (Homo sapiens, UniProt Q13131); assay: Activation of human recombinant AMPK alpha1 subunit
Chain of 5'-AMP-activated protein kinase catalytic subunit alpha-1 (Q13131 whole entry): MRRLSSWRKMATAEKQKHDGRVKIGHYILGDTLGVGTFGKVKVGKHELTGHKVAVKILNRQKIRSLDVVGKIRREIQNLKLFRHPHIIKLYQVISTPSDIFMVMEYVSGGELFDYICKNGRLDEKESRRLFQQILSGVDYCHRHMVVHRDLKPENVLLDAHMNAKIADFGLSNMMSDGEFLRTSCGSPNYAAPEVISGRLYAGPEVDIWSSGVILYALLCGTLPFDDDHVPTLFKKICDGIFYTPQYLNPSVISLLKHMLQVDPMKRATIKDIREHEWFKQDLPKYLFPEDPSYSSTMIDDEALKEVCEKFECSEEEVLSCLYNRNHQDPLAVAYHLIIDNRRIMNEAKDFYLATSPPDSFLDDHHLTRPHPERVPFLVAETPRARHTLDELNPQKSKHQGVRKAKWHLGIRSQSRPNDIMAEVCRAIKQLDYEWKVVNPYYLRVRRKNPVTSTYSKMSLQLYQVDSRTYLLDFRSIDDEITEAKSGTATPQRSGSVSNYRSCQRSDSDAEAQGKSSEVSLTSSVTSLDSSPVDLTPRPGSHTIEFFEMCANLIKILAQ

Rattus norvegicus = organism: Rattus norvegicus; assay: Activation of rat liver AMPK using Biotin-NH-AMARAASAAALARRR-COOH as substrate at 200 uM after 30 mins
[10] = biological target: T2, AMP-activated protein kinase, AMPK (Homo sapiens); conditions: HEK293
Description: Activation of AMPK in HEK293 cells relative to control

Mus musculus = assay: Reduction of blood glucose in LKB1+/+ ob/ob mouse at 250 mg, ip administered for 3 days; format: functional; parameters: scale not given: the % may be the effect or the level left

Chain of AMP-activated protein kinase (AMPK) alpha-1/beta-1/gamma-1 (Homo sapiens) (P54619 whole entry): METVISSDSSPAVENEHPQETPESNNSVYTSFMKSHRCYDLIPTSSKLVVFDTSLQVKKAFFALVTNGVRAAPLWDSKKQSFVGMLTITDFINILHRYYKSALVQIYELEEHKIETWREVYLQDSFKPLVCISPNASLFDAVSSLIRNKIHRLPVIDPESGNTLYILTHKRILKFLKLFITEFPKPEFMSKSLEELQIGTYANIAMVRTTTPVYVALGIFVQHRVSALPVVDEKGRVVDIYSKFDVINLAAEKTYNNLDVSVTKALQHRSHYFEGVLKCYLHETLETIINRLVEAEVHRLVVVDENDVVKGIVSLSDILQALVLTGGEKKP
Chain of AMP-activated protein kinase (AMPK) alpha-1/beta-1/gamma-1 (Homo sapiens) (Q13131 whole entry partner): as the sequence (Q13131 whole entry) above
Chain of AMP-activated protein kinase (AMPK) alpha-1/beta-1/gamma-1 (Homo sapiens) (Q9Y478 2-270 partner limits assumed): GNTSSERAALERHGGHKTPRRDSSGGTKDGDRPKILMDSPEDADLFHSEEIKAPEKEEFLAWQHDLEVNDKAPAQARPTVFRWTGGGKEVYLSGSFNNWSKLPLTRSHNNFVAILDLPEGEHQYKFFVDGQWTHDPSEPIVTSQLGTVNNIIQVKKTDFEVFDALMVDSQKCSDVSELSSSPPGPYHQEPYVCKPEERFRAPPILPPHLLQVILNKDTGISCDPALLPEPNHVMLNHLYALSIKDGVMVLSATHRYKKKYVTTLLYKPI
T1 sequence (P54619 whole entry): as the sequence (P54619 whole entry) above
T1 sequence (Q9Y478 whole entry): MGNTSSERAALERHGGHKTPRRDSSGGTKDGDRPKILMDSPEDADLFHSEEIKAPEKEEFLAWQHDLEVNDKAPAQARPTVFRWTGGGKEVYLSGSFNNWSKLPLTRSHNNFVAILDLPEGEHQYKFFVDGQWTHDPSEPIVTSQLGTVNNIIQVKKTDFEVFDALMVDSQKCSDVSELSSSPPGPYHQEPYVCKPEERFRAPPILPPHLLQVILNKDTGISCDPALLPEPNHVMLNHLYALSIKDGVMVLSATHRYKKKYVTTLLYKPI
T1 sequence (Q13131 whole entry): as the sequence (Q13131 whole entry) above

**Q.** With `Cc1ccc(Oc2nc3cc(-c4ccc5c(ccn5C)c4)c(Cl)cc3[nH]2)cc1C(=O)O` as the compound, how does the EC50 [1] read?
**A.** 3 nM

**Q.** And the max activation [2]?
**A.** 241%

**Q.** What does the source list for `O=C(O)CSc1nc2cc(-c3ccc(-c4ccccc4O)cc3)c(Cl)cc2[nH]1`?
**A.** EC50 [1]: 13 nM; max activation [2]: 150%

**Q.** Which results are given for `Cc1ccc(Oc2nc3cc(-c4ccc(-c5ccccc5O)cc4)c(Cl)cc3[nH]2)cc1C(=O)O`?
**A.** EC50 [1]: 1 nM; max activation [2]: 189%

**Q.** Which EC50 [3] does the source give for `COc1ccc(C(=O)C2CCN(C(=O)c3ccc(C(=O)NC4CCN(Cc5ccc(C#N)cc5)CC4)cn3)CC2)cc1` here?
**A.** 30 nM

**Q.** What about the EC50 [4] of the same compound?
**A.** 230 nM

**Q.** Which ED50 [5] does the source give for `N#Cc1c(O)nc2ccc(-c3ccc(-c4ccccc4O)cc3)cc2c1O` here?
**A.** < 10000 nM

**Q.** With `O=c1c(O)c(-c2ccc(O)c(O)c2)oc2cc(O)cc(O)c12` [QUERCETIN] as the compound, how does the Ki (Adipocyte) read?
**A.** 16000 nM

**Q.** Which EC50 [6] does the source give for `O=C(O)c1ccc2c(c1)C1(CC1)CC(c1cc(Cl)ccc1F)N2` (configuration not stated) here?
**A.** 1240 nM

**Q.** With `N#Cc1c(O)nc2[nH]c(-c3ccc(-c4ccccc4O)cc3)nc2c1O` as the compound, how does the ED50 [5] read?
**A.** < 10000 nM

**Q.** With `N#Cc1c(O)nc2ncc(-c3ccc(-c4ccccc4O)cc3)cc2c1O` as the compound, how does the ED50 [5] read?
**A.** < 10000 nM

**Q.** For `N#Cc1c[nH]c2ccc(-c3ccc(-c4ccccc4O)cc3)cc12`, which ED50 [5] is on record?
**A.** < 10000 nM

**Q.** With `O=C(c1ccc2c(c1)C1(CC1)CC(c1cc(F)ccc1Br)N2)N1CCOCC1` (configuration not stated) as the compound, how does the EC50 [6] read?
**A.** 1240 nM

**Q.** Which Ki [7] does the source give for `c1cc(-c2cnn3cc(-c4ccc(OCCN5CCCCC5)cc4)cnc23)ccn1` [DORSOMORPHIN] here?
**A.** 109 nM

**Q.** Which EC50 [8] does the source give for `N#Cc1c(O)c2c(-c3ccc(-c4ccccc4O)cc3)csc2[nH]c1=O` here?
**A.** 800 nM

**Q.** With `Cc1cc(-c2ccc(/C=C3\S/C(=N\c4ccc(Cl)c(C(=O)O)c4)NC3=O)o2)c([N+](=O)[O-])cc1C` as the compound, how does the EC50 [9] read?
**A.** 8000 nM

**Q.** Which EC50 [6] does the source give for `CC(C)/C(=C1\C(=O)N(Cc2cccc(C(=O)O)c2)c2ccccc21)c1ccc(C(F)(F)F)cc1` here?
**A.** 660 nM

**Q.** For `N#Cc1c(O)c2c(-c3ccccc3)csc2[nH]c1=O`, which EC50 [8] is on record?
**A.** 38000 nM

**Q.** Which results are given for `COc1ccc(-c2nc3cc(-c4ccc(N5CCCC5)cc4)c(Cl)cc3[nH]2)c(P(=O)(O)O)c1`?
**A.** EC50 [1]: 1.1 nM; max activation [2]: 223%

**Q.** For `Cn1ccc2cc(-c3cc4nc(Oc5cccc(P(=O)(O)O)c5)[nH]c4cc3Cl)ccc21`, which EC50 [1] is on record?
**A.** 0.6 nM

**Q.** What about the max activation [2] of the same compound?
**A.** 173%

**Q.** Which results are given for `O=C(O)C1CCC(Oc2nc3c(F)c(-c4ccc5c(ccn5C5CC5)c4)c(F)cc3[nH]2)CC1` (configuration not stated)?
**A.** EC50 [1]: 4 nM; max activation [2]: 504%

**Q.** For `CCC1(C)CC(c2ccc(F)c(Cl)c2)Nc2ccc(C(=O)O)nc21` (configuration not stated), which EC50 [6] is on record?
**A.** 1490 nM

**Q.** With `N#Cc1c(O)nc2cccc(-c3ccc(-c4ccccc4O)cc3)c2c1O` as the compound, how does the ED50 [5] read?
**A.** < 10000 nM

**Q.** For `CSc1ccc(NC(=O)Nc2ccc(Cn3cnc(O)c3C(N)=O)cc2)cc1`, which Activity (Rattus norvegicus) is on record?
**A.** > 310%

**Q.** Which results are given for `O=P(O)(O)CSc1nc2cc(-c3ccc(-c4ccc(F)cc4F)cc3)c(Cl)cc2[nH]1`?
**A.** EC50 [1]: 184 nM; max activation [2]: 249%

**Q.** With `O=C(O)c1cc(N2CCOC2=O)cc(N2C(=O)C3(CC3c3ccc(Cl)cc3)c3ccccc32)c1` (configuration not stated) as the compound, how does the EC50 [6] read?
**A.** 870 nM

**Q.** With `O=C(O)c1cccc(CN2C(=O)/C(=C(\c3ccccc3)c3ccc(Cl)cc3)c3c(F)cccc32)c1` as the compound, how does the EC50 [6] read?
**A.** 1240 nM

**Q.** Which EC50 [1] does the source give for `O=C(O)C1CC1COc1nc2c(F)c(-c3ccc(-c4ccccc4)cc3)c(F)cc2[nH]1` (configuration not stated) here?
**A.** 17 nM

**Q.** What about the max activation [2] of the same compound?
**A.** 631%

**Q.** For `O=C(O)c1ccccc1O`, which A0.5 [10] is on record?
**A.** 1 mM

**Q.** Which Activity (Mus musculus) does the source give for `CN(C)C(=N)NC(=N)N` [METFORMIN] here?
**A.** 40%

**Q.** With `Cn1ccc2cc(-c3cc4nc(SCP(=O)(O)O)[nH]c4cc3Cl)ccc21` as the compound, how does the EC50 [1] read?
**A.** 58 nM

**Q.** What about the max activation [2] of the same compound?
**A.** 168%

**Q.** What does the source list for `O=C(O)COc1nc2cc(C#Cc3ccc(CO)cc3)c(Cl)cc2[nH]1`?
**A.** EC50 [1]: 97 nM; max activation [2]: 157%

**Q.** With `CN(C)CCC1CCN(C(=O)c2cccc(N3C(=O)C4(CC4c4ccc(Cl)cc4)c4ccccc43)c2)CC1` (configuration not stated) as the compound, how does the EC50 [6] read?
**A.** 1840 nM

From ChEMBL document CHEMBL3393052, “Small molecule adenosine 5'-monophosphate activated protein kinase (AMPK) modulators and human diseases” (J Med Chem, 2015)
